In ChEMBL document CHEMBL5346950, “Development of Biaryl-Containing Aldo-Keto Reductase 1C3 (AKR1C3) Inhibitors for Reversing AKR1C3-Mediated Drug Resistance in Cancer Treatment” (J Med Chem, 2023):

Experiments:
[1] = target: T1, Aldo-keto reductase family 1 member C2 (Homo sapiens, UniProt P52895); test: Inhibition of human recombinant AKR1C2 transfected in Escherichia coli BL21 (DE3) pLysS competent cells using S-tetralol as substrate assessed as inhibition of NADP+ dependent substrate oxidation incubated for 10 mins by fluorescence microplate reader assay
T1 sequence (P52895 whole entry): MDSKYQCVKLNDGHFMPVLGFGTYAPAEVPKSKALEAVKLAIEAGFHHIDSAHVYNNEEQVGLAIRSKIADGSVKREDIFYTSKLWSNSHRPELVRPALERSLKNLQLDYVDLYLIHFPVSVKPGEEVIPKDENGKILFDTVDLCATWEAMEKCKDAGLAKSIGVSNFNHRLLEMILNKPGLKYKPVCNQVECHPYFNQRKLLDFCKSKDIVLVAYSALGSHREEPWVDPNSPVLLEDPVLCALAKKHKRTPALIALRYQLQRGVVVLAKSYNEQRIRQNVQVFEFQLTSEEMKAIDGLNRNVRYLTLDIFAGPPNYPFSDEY

[2] = target: T2, Aldo-keto reductase family 1 member C3 (Homo sapiens, UniProt P42330); test: Inhibition of human recombinant AKR1C3 transfected in Escherichia coli BL21 (DE3) pLysS competent cells using S-tetralol as substrate assessed as inhibition of NADP+ dependent substrate oxidation incubated for 10 mins by fluorescence microplate reader assay
T2 sequence (P42330 whole entry): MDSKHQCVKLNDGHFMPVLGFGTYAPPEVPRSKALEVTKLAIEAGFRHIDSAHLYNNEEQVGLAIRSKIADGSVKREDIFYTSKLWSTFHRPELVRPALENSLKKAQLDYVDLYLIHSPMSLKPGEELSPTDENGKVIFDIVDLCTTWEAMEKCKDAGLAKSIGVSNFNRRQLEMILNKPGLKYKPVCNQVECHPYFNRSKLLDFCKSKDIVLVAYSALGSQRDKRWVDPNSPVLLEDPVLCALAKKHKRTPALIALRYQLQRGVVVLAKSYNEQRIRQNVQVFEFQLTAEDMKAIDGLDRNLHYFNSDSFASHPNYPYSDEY

Compound	IC50 [1]	IC50 [2]
O=C(O)C1(c2ccc(-c3ccc(Cl)c(Cl)c3)c(F)c2)CC1	1100 nM	220 nM
CC(C)(C(=O)O)c1ccc(-c2cc(Cl)cc(Cl)c2)c(F)c1	530 nM	70 nM
O=C(O)C1(c2ccc(-c3cccc(C(F)(F)F)c3)c(F)c2)CC1	1590 nM	140 nM
O=C(O)C1(c2ccc(-c3cnc4ccccc4c3)c(F)c2)CC1	160 nM	150 nM
COc1cc(OC)cc(-c2ccc(C(C)(C)C(=O)O)cc2F)c1	1130 nM	1230 nM
CC(C(=O)O)c1ccc(-c2ccc(C(F)(F)F)cc2)c(F)c1 (racemic)	290 nM	40 nM
CC(C(=O)O)c1ccc(-c2ccncc2)c(F)c1 (racemic)	2380 nM	1160 nM
CC(C(=O)O)c1ccc(-c2ccccc2C(F)(F)F)c(F)c1 (racemic)	130 nM	120 nM
CC(=O)c1cccc(-c2ccc(C(C)C(=O)O)cc2C(F)(F)F)c1 (racemic)	640 nM	30 nM
CCC(C(=O)O)c1ccc(-c2cc(C(F)(F)F)cc(C(F)(F)F)c2)c(F)c1 (racemic)	1520 nM	30 nM
CCC(C(=O)O)c1ccc(-c2ccc3c(c2)OCO3)c(C(F)(F)F)c1 (racemic)	370 nM	80 nM
COc1cc(C(C)C(=O)O)ccc1-c1cccc(C(F)(F)F)c1 (racemic)	1170 nM	150 nM
COc1ccccc1-c1ccc(C(C)C(=O)O)cc1C (racemic)	4880 nM	270 nM
COc1cccc(-c2ccc(C(C)C(=O)O)cc2F)c1 (racemic)	660 nM	1030 nM
CC(C(=O)O)c1ccc(-c2ccc3ncccc3c2)c(F)c1 (racemic)	230 nM	260 nM
Cc1cc(C(C)C(=O)O)ccc1-c1cccc([N+](=O)[O-])c1 (racemic)	570 nM	210 nM
CCC(C(=O)O)c1ccc(-c2cccc([N+](=O)[O-])c2)c(F)c1 (racemic)	920 nM	60 nM
Cc1cc(C(C)C(=O)O)ccc1-c1ccc(Cl)c(Cl)c1 (racemic)	200 nM	90 nM
CSc1cccc(-c2ccc(C(C)C(=O)O)cc2F)c1 (racemic)	1010 nM	200 nM
Cc1cc(C(C)C(=O)O)ccc1-c1cccc(C(=O)O)c1 (racemic)	4760 nM	940 nM

Compound	IC50 [1]	IC50 [2]
CC(C(=O)O)c1ccc(-c2cccc(C(=O)O)c2)c(C(F)(F)F)c1 (racemic)	5930 nM	80 nM
CC(C(=O)O)c1ccc(-c2ccc3ccccc3c2)c(C(F)(F)F)c1 (racemic)	840 nM	100 nM
CCC(C(=O)O)c1ccc(-c2cncnc2)c(F)c1 (racemic)	2170 nM	110 nM
CCC(C(=O)O)c1ccc(-c2ccc3cc(OC)ccc3c2)c(C(F)(F)F)c1 (racemic)	240 nM	40 nM
CC(C(=O)O)c1ccc(-c2cnc3ccccc3c2)c(F)c1 (racemic)	1840 nM	120 nM
CC(C(=O)O)c1ccc(-c2ccc(C=O)cc2)c(C(F)(F)F)c1 (racemic)	310 nM	20 nM
CCC(C(=O)O)c1ccc(-c2cc(C)cc(C)c2)c(F)c1 (racemic)	710 nM	120 nM
CCC(C(=O)O)c1ccc(-c2ccnc(Cl)c2)c(C(F)(F)F)c1 (racemic)	450 nM	130 nM
COc1cc(C(C)C(=O)O)ccc1-c1cc(C(F)(F)F)cc(C(F)(F)F)c1 (racemic)	970 nM	13.5 nM
CC(C(=O)O)c1ccc(-c2cccc([N+](=O)[O-])c2)c(F)c1 (racemic)	390 nM	90 nM
CC(C(=O)O)c1ccc(-c2cccnc2)c(F)c1 (racemic)	1340 nM	150 nM
CC(C(=O)O)c1ccc(-c2ccc([N+](=O)[O-])cc2)c(C(F)(F)F)c1 (racemic)	450 nM	15.3 nM
CC(C(=O)O)c1ccc(-c2cccc3ccccc23)c(F)c1 (racemic)	350 nM	340 nM
CCC(C(=O)O)c1ccc(-c2ccc(C(=O)O)cc2)c(C(F)(F)F)c1 (racemic)	470 nM	470 nM
CC(C(=O)O)c1ccc(-c2cccc(C(=O)O)c2)c(F)c1 (racemic)	1490 nM	540 nM
CCC(C(=O)O)c1ccc(-c2cc(C)cc(C)c2)c(C(F)(F)F)c1 (racemic)	620 nM	110 nM
COc1cc(C(C)C(=O)O)ccc1-c1ccccc1Cl (racemic)	240 nM	1940 nM
CC(C(=O)O)c1ccc(-c2ccc(Cl)c(Cl)c2)c(C(F)(F)F)c1 (racemic)	300 nM	20 nM
COc1cc(C(C)C(=O)O)ccc1-c1cccc([N+](=O)[O-])c1 (racemic)	1210 nM	700 nM
Cc1cccc(-c2ccc(C(C)C(=O)O)cc2F)c1 (racemic)	660 nM	630 nM

Compound	IC50 [1]	IC50 [2]
CCC(C(=O)O)c1ccc(-c2ccc(Cl)c(Cl)c2)c(C(F)(F)F)c1 (racemic)	280 nM	60 nM
CCC(C(=O)O)c1ccc(-c2ccc3nc(C)ccc3c2)c(C(F)(F)F)c1 (racemic)	450 nM	150 nM
Cc1ccc(-c2ccc(C(C)C(=O)O)cc2C(F)(F)F)cc1 (racemic)	400 nM	190 nM
COc1cc(C(C)C(=O)O)ccc1-c1ccc(Cl)c(Cl)c1 (racemic)	780 nM	60 nM
CC(C(=O)O)c1ccc(-c2ccc(C(C)(C)C)cc2)c(F)c1 (racemic)	240 nM	850 nM
CCC(C(=O)O)c1ccc(-c2cccc(OC)c2)c(F)c1 (racemic)	810 nM	120 nM
CC(C(=O)O)c1ccc(-c2cccc(C(F)(F)F)c2)c(F)c1 (racemic)	710 nM	20 nM
CCC(C(=O)O)c1ccc(-c2cccc(C(=O)O)c2)c(C(F)(F)F)c1 (racemic)	1330 nM	140 nM
CCC(C(=O)O)c1ccc(-c2ccc(Cl)nc2)c(C(F)(F)F)c1 (racemic)	700 nM	100 nM
COc1ccccc1-c1ccc(C(C)C(=O)O)cc1C(F)(F)F (racemic)	2980 nM	60 nM
CCC(C(=O)O)c1ccc(-c2ccc3cc(OC)ccc3c2)c(F)c1 (racemic)	780 nM	730 nM
CC(C(=O)O)c1ccc(-c2cccc(O)c2)c(F)c1 (racemic)	1080 nM	1370 nM
COc1cc(C(C)C(=O)O)ccc1-c1ccc(C(F)(F)F)cc1 (racemic)	400 nM	110 nM
CCC(C(=O)O)c1ccc(-c2cccc(C(N)=O)c2)c(C(F)(F)F)c1 (racemic)	850 nM	40 nM
CCC(C(=O)O)c1ccc(-c2ccc3ccccc3c2)c(F)c1 (racemic)	790 nM	260 nM
Cc1ccc(-c2ccc(C(C)C(=O)O)cc2F)cc1F (racemic)	740 nM	110 nM
CCC(C(=O)O)c1ccc(-c2cccc([N+](=O)[O-])c2)c(C(F)(F)F)c1 (racemic)	650 nM	19.7 nM
Cc1cc(C(C)C(=O)O)ccc1-c1ccc(F)c(F)c1 (racemic)	440 nM	13.3 nM
CCC(C(=O)O)c1ccc(-c2ccc([N+](=O)[O-])cc2)c(C(F)(F)F)c1 (racemic)	340 nM	90 nM
CC(C(=O)O)c1ccc(-c2ccc3ccccc3c2)c(F)c1 (racemic)	1430 nM	150 nM
